Assay results taken from ChEMBL document CHEMBL4837216, “Polymyxin B-inspired non-hemolytic tyrocidine A analogues with significantly enhanced activity against gram-negative bacteria: How cationicity impacts cell specificity and antibacterial mechanism” (Eur J Med Chem, 2021).
≈ marks a conversion by molar mass, not a printed value. Calls of active or inactive are those of the source. The rule behind the calls is not given here.

How the values were obtained:
Lipopolysaccharide (LPS) = test: Displacement of dansyl-polymyxinB from LPS (unknown origin) assessed as decrease in fluorescence intensity by fluorescence spectrophotometric analysis
Cell membrane [1] = test: Induction of cytoplasmic membrane permeabilization in Staphylococcus aureus at 0.06 to 8 times MIC measured for 10 mins by propidium iodide dye based fluorescence assay
Cell membrane [2] = test: Induction of cytoplasmic membrane permeabilization in Staphylococcus aureus assessed as increase in red fluorescence intensity at 2 times MIC measured after 60 mins by fluorescence microscopy
Escherichia coli [3] = test: Antibacterial activity against Escherichia coli ATCC 8739 assessed as inhibition of bacterial growth measured after 24 hrs by turbidity based analysis; format: functional
Pseudomonas aeruginosa = test: Antibacterial activity against Pseudomonas aeruginosa ATCC 27853 assessed as inhibition of bacterial growth measured after 24 hrs by turbidity based analysis; format: functional
Acinetobacter baumannii = test: Antibacterial activity against Acinetobacter baumannii ATCC 19606 assessed as inhibition of bacterial growth measured after 24 hrs by turbidity based analysis; format: functional; conditions: ATCC 19606 = CIP 70.34 = JCM 6841
Staphylococcus aureus [4] = test: Antibacterial activity against Staphylococcus aureus ATCC 6538 assessed as inhibition of bacterial growth measured after 24 hrs by turbidity based analysis; format: functional
Enterococcus faecalis = test: Antibacterial activity against Enterococcus faecalis ATCC 29212 assessed as inhibition of bacterial growth measured after 24 hrs by turbidity based analysis; format: functional
Staphylococcus aureus [5] = test: Antibacterial activity against methicillin resistant Staphylococcus aureus assessed as inhibition of bacterial growth measured after 24 hrs by turbidity based analysis; format: functional
[6] = Hemolytic activity in human RBC assessed as induction of cell lysis measured after 30 mins by microtiter plate method; format: cell-based, Erythrocyte; conditions: human red blood cells (erythrocytes)
L02 = test: Cytotoxicity against human L02 cells assessed as reduction in cell viability at >10 uM incubated for 24 hrs by CCK8 assay; format: cell-based; conditions: l02, 24 h
Cell membrane [7] = test: Induction of outer membrane permeabilization to NPN in Escherichia coli ATCC 8739 cells assessed as increase in fluorescence intensity by NPN-probe based fluorescence spectrophotometric analysis; format: subcellular
Cell membrane [8] = test: Induction of cytoplasmic membrane depolarization in Escherichia coli assessed as increase in fluorescence intensity a 1XMIC by DiSC3-5 dye based fluorescence method
Cell membrane [9] = test: Induction of cytoplasmic membrane depolarization in Staphylococcus aureus assessed as increase in fluorescence intensity a 1XMIC by DiSC3-5 dye based fluorescence method
Cell membrane [10] = test: Induction of cytoplasmic membrane permeabilization in Escherichia coli at 0.06 to 8 times MIC measured for 10 mins by propidium iodide dye based fluorescence assay
Cell membrane [11] = test: Induction of cytoplasmic membrane permeabilization in Escherichia coli at 0.06 to 8 times MIC measured for 60 mins by propidium iodide dye based fluorescence assay
Cell membrane [12] = test: Induction of cytoplasmic membrane permeabilization in Staphylococcus aureus at 0.06 to 8 times MIC measured for 60 mins by propidium iodide dye based fluorescence assay; format: subcellular
Cell membrane [13] = test: Induction of cytoplasmic membrane permeabilization in Escherichia coli assessed as increase in red fluorescence intensity at 2 times MIC measured after 60 mins by fluorescence microscopy; format: subcellular
Cell membrane [14] = test: Induction of cell membrane disruption in Escherichia coli assessed as increase in fluorescence intensity at 4 times MIC measured after 60 mins by PI staining based flow cytometric analysis (reference value: 0.1%); format: subcellular
Cell membrane [15] = test: Induction of cell membrane disruption in Escherichia coli assessed as increase in fluorescence intensity at 2 times MIC measured after 60 mins by PI staining based flow cytometric analysis (reference value: 0.1%); format: subcellular
[16] = Stability of the compound in human serum at 100 uM measured after 24 hrs by RP-HPLC analysis; format: ADME, cell-free
Escherichia coli [17] = test: Antibacterial activity against Escherichia coli ATCC 8739 infected in C57BL/6 mouse peritonitis sepsis model assessed as bacterial load in liver at 10 mg/kg, ip administered for 12 hrs (reference value: 5.7 +/-0.35 logCFU/gm); format: functional
Escherichia coli [18] = test: Antibacterial activity against Escherichia coli ATCC 8739 infected in C57BL/6 mouse peritonitis sepsis model assessed as bacterial load in kidney at 10 mg/kg, ip administered for 12 hrs (reference value: 5.15 +/-0.4 logCFU/gm); format: functional
Escherichia coli [19] = test: Antibacterial activity against Escherichia coli ATCC 8739 infected in C57BL/6 mouse peritonitis sepsis model assessed as bacterial load in spleen at 10 mg/kg, ip administered for 12 hrs (reference value: 6.01 +/-0.59 logCFU/gm); format: functional
Escherichia coli [20] = test: Antibacterial activity against Escherichia coli ATCC 8739 infected in C57BL/6 mouse peritonitis sepsis model assessed as bacterial load in lung at 10 mg/kg, ip administered for 12 hrs (reference value: 5.47 +/-0.73 logCFU/gm); format: functional
Staphylococcus aureus [21] = test: Antibacterial activity against Staphylococcus aureus ATCC 6538 assessed as inhibition of bacterial growth measured after 17 passages by turbidity based analysis; format: functional, organism-based
Escherichia coli [22] = test: Antibacterial activity against Escherichia coli ATCC 8739 infected in C57BL/6 mouse peritonitis sepsis model assessed as reduction in inflammatory cell infiltration in liver at 10 mg/kg, ip administered for 12 hrs by Hematoxylin-Eosin staining based microscopic analysis; format: functional, organism-based
Escherichia coli [23] = test: Antibacterial activity against Escherichia coli ATCC 8739 assessed as inhibition of bacterial growth measured after 17 passages by turbidity based analysis; format: functional, organism-based
Escherichia coli [24] = test: Antibacterial activity against Escherichia coli ATCC 8739 infected in C57BL/6 mouse peritonitis sepsis model assessed as reduction in inflammatory cell infiltration in kidney at 10 mg/kg, ip administered for 12 hrs by Hematoxylin-Eosin staining based microscopic analysis; format: functional, organism-based
Escherichia coli [25] = test: Antibacterial activity against Escherichia coli ATCC 8739 infected in C57BL/6 mouse peritonitis sepsis model assessed as reduction in inflammatory cell infiltration in spleen at 10 mg/kg, ip administered for 12 hrs by Hematoxylin-Eosin staining based microscopic analysis; format: functional, organism-based
Escherichia coli [26] = test: Antibacterial activity against Escherichia coli ATCC 8739 infected in C57BL/6 mouse peritonitis sepsis model assessed as reduction in inflammatory cell infiltration in lung at 10 mg/kg, ip administered for 12 hrs by Hematoxylin-Eosin staining based microscopic analysis; format: functional, organism-based
Lipid bilayer [27] = test: Binding affinity to bacterial inner membrane mimic DOPE/DOPG (3:1) large unilamellar vesicles assessed as calcein leakage measured after 30 mins fluorescence based assay
Cell membrane [28] = test: Induction of cell membrane disruption in Escherichia coli assessed as wrinkled cells at 20 uM incubated for 1 hr by scanning electron microscopy
Cell membrane [29] = test: Induction of cell membrane disruption in Staphylococcus aureus assessed as cell morphological damage at 20 uM incubated for 1 hr by scanning electron microscopy; format: subcellular
Escherichia coli [30] = test: Bactericidal activity against Escherichia coli assessed as decrease in cell survival at 1XMIC measured after 24 hrs by colony counting assay; format: functional, organism-based
Staphylococcus aureus [31] = test: Bactericidal activity against Staphylococcus aureus assessed as decrease in cell survival at 1XMIC measured after 24 hrs by colony counting assay; format: functional, organism-based
Cell membrane [32] = test: Induction of cell membrane disruption in Escherichia coli assessed as increase in fluorescence intensity at 1 times MIC measured after 60 mins by PI staining based flow cytometric analysis (reference value: 0.1%); format: subcellular
Lipid bilayer [33] = test: Binding affinity to eukaryotic cell membrane mimic DOPC/Cholesterol (3:1) large unilamellar vesicles assessed as calcein leakage measured after 30 mins fluorescence based assay
Escherichia coli [34] = test: Antibacterial activity against Escherichia coli ATCC 8739 infected in C57BL/6 mouse peritonitis sepsis model assessed as clear boundaries between hepatic cell cords in liver at 10 mg/kg, ip administered for 12 hrs by Hematoxylin-Eosin staining based microscopic analysis; format: functional, organism-based
Escherichia coli [35] = test: Antibacterial activity against Escherichia coli ATCC 8739 infected in C57BL/6 mouse peritonitis sepsis model assessed as glomerulus and renal tubules with normal shape in kidney at 10 mg/kg, ip administered for 12 hrs by Hematoxylin-Eosin staining based microscopic analysis; format: functional, organism-based
Escherichia coli [36] = test: Antibacterial activity against Escherichia coli ATCC 8739 infected in C57BL/6 mouse peritonitis sepsis model assessed as clear boundaries between white and red pulps in spleen at 10 mg/kg, ip administered for 12 hrs by Hematoxylin-Eosin staining based microscopic analysis; format: functional, organism-based
Escherichia coli [37] = test: Antibacterial activity against Escherichia coli ATCC 8739 infected in C57BL/6 mouse peritonitis sepsis model assessed as reduction in bleeding with normal shaped alveoli at 10 mg/kg, ip administered for 12 hrs by Hematoxylin-Eosin staining based microscopic analysis; format: functional, organism-based

## CC(C)C[C@@H]1NC(=O)[C@H](CCCN)NC(=O)[C@H](CCCN)NC(=O)[C@H](CCCN)NC(=O)[C@H](CCCN)NC(=O)[C@H](CCCN)NC(=O)[C@@H](Cc2ccccc2)NC(=O)[C@H](Cc2ccccc2)NC(=O)[C@@H]2CCCN2C(=O)[C@@H](Cc2ccccc2)NC1=O
Lipopolysaccharide (LPS)
  Activity: Active
Cell membrane [1]
  Activity: inactive
Cell membrane [2]
  Activity: Active
Escherichia coli [3]
  MIC: 5 µM (≈ 6.11 µg/mL)
Pseudomonas aeruginosa
  MIC: 10 µM (≈ 12.2 µg/mL)
Acinetobacter baumannii
  MIC: 10 µM (≈ 12.2 µg/mL)
Staphylococcus aureus [4]
  MIC: 5 µM (≈ 6.11 µg/mL)
Enterococcus faecalis
  MIC: 5 µM (≈ 6.11 µg/mL)
Staphylococcus aureus [5]
  MIC: 10 µM (≈ 12.2 µg/mL)
[6]
  HC50 at 0.5 h: > 400 µM
L02
  Activity: Toxic
Cell membrane [7]
  Activity: Active
Cell membrane [8]
  Activity: Active
Cell membrane [9]
  Activity: Active
Cell membrane [10]
  Activity: inactive
Cell membrane [11]
  Activity: Active
Cell membrane [12]
  Activity: Active
Cell membrane [13]
  Activity: Active
Cell membrane [14]
  Activity: 91.8%
Cell membrane [15]
  Activity: 78.3%
[16]
  Stabilty: Stable
Escherichia coli [17]
  Activity: 2.49 log10CFU/g
Escherichia coli [18]
  Activity: 3.48 log10CFU/g
Escherichia coli [19]
  Activity: 4.25 log10CFU/g
Escherichia coli [20]
  Activity: 3.15 log10CFU/g
Staphylococcus aureus [21]
  Activity: Active
Escherichia coli [22]
  Activity: Active
Escherichia coli [23]
  Activity: Active
Escherichia coli [24]
  Activity: Active
Escherichia coli [25]
  Activity: Active
Escherichia coli [26]
  Activity: Active
Lipid bilayer [27]
  Activity: Active
Cell membrane [28]
  Activity: Active
Cell membrane [29]
  Activity: Active
Escherichia coli [30]
  Activity: Active
Staphylococcus aureus [31]
  Activity: Active
Cell membrane [32]
  Activity: 42.7%
Lipid bilayer [33]
  Activity: inactive
Escherichia coli [34]
  Activity: Active
Escherichia coli [35]
  Activity: Active
Escherichia coli [36]
  Activity: Active
Escherichia coli [37]
  Activity: Active
